# Measurements: US11478478B2, “2,3-disubstituted 1-acyl-4-amino-1,2,3,4-tetrahydroquinoline derivatives and their use as bromodomain inhibitors” (GLAXOSMITHKLINE INTELLECTUAL PROPERTY (NO.2) LIMITED, priority 2013, dated 2022)
# Target: T1, BRD4 BD2 (Homo sapiens, UniProt O60885, Y97A)
# T1 construct: BRD4 (1-477) (Y97A) and (Y390A); made in house; host or cells: E. coli (pET15b vector)
# Assay: TR-FRET binding assay, BRD4 BD2 (BD1-mutated protein)
# Settings: read-out: pIC50 in the BRD4 BD2 assay (converted)
# In short: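 Displacement of Alexa Fluor647-labelled bromodomain ligand (at Kd) from 10 nM His-tagged BRD4 (1-477, Y97A) read by Eu-anti-His TR-FRET (665/615 ratio) in pH 7.4 HEPES buffer, 0.5% DMSO. Compound preincubated 30 min at rt, detection ≥30 min. pIC50 derived from four-parameter fit after normalisation to controls.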
row,IC50,Compound
1,1000 to 100000 nM,"CC(=O)N1c2ccc(C(=O)NCCO)cc2[C@H](Nc2ccnc(C)n2)[C@@H](C)[C@@H]1C1CC1 [Example 441, (2S,3R,4R)-1-acetyl-2-cyclopropyl-N-(2-hydroxyethyl)-3-methyl-4-((2-methylpyrimidin-4-yl)amino)-1,2,3,4-tetrahydroquinoline-6-carboxamide]"
2,100 nM,"CC(=O)N1c2ccc(C(N)=O)cc2[C@H](Nc2ncccn2)[C@@H](C)[C@@H]1C1CC1 [Example 399, (2S,3R,4R)-1-acetyl-2-cyclopropyl-3-methyl-4-(pyrimidin-2-ylamino)-1,2,3,4-tetrahydroquinoline-6-carboxamide]"
3,100 nM,CC(=O)N1c2ccc(C(N)=O)cc2[C@H](Nc2nccc(C3=CCOCC3)n2)[C@@H](C)[C@@H]1C1CC1 [Example 413]
4,100 nM,"CC(=O)N1c2ccc(C(N)=O)cc2[C@H](Nc2ccc(Cl)cn2)[C@@H](C)[C@@H]1C1CC1 [Example 379, (2S,3R,4R)-1-acetyl-4-((5-chloropyridin-2-yl)amino)-2-cyclopropyl-3-methyl-1,2,3,4-tetrahydroquinoline-6-carboxamide]"
5,100 nM,"CNC(=O)c1ccc2c(c1)[C@H](Nc1ccc(C#N)cc1)[C@@H](C)[C@H](C1CC1)N2C(C)=O (racemic) [Example 243, rac-(2S,3R,4R)-1-acetyl-4-((4-cyanophenyl)amino)-2-cyclopropyl-N,3-dimethyl-1,2,3,4-tetrahydroquinoline-6-carboxamide]"
6,1000 to 100000 nM,"CC(=O)N1c2ccc(C(N)=O)cc2[C@H](Nc2cnc(C#N)c(Cl)c2)[C@@H](C)[C@@H]1C1CC1 [Example 391, (2S,3R,4R)-1-acetyl-4-((5-chloro-6-cyanopyridin-3-yl)amino)-2-cyclopropyl-3-methyl-1,2,3,4-tetrahydroquinoline-6-carboxamide]"
7,1000 to 100000 nM,"CC(=O)N1c2ccc(F)cc2[C@H](Nc2ccc(C(N)=O)cn2)[C@@H](C)[C@@H]1C1CC1 [Example 522, 6-(((2S,3R,4R)-1-acetyl-2-cyclopropyl-6-fluoro-3-methyl-1,2,3,4-tetrahydroquinolin-4-yl)amino)nicotinamide]"
8,1000 to 100000 nM,"CC(=O)N1c2ccc(C(N)=O)cc2[C@H](Nc2nc(C)cc(C)n2)[C@@H](C)[C@@H]1C1CC1 [Example 408, (2S,3R,4R)-1-acetyl-2-cyclopropyl-4-((4,6-dimethylpyrimidin-2-yl)amino)-3-methyl-1,2,3,4-tetrahydroquinoline-6-carboxamide]"
9,100 nM,"COc1ccc(N[C@H]2c3cc(C(N)=O)ccc3N(C(C)=O)[C@@H](C3CC3)[C@@H]2C)c(C#N)c1 [Example 392, (2S,3R,4R)-1-acetyl-4-((2-cyano-4-methoxyphenyl)amino)-2-cyclopropyl-3-methyl-1,2,3,4-tetrahydroquinoline-6-carboxamide]"
10,100 nM,"CC(=O)N1c2ccc(C(=O)NCCS(C)(=O)=O)cc2[C@H](Nc2cccc(C)n2)[C@@H](C)[C@@H]1C1CC1 [Example 262, (2S,3R,4R)-1-acetyl-2-cyclopropyl-3-methyl-4-((6-methylpyridin-2-yl)amino)-N-(2-(methylsulfonyl)ethyl)-1,2,3,4-tetrahydroquinoline-6-carboxamide]"
11,1000 to 100000 nM,"CC(=O)N1c2ccc(C(N)=O)cc2[C@@H](Nc2nccc(C)n2)[C@H](C)[C@H]1C1CC1 (single isomer, unassigned) [Example 397]"
12,100 nM,"COc1cc(C#N)ccc1N[C@H]1c2cc(C(N)=O)ccc2N(C(C)=O)[C@@H](C2CC2)[C@@H]1C [Example 390, (2S,3R,4R)-1-acetyl-4-((4-cyano-2-methoxyphenyl)amino)-2-cyclopropyl-3-methyl-1,2,3,4-tetrahydroquinoline-6-carboxamide]"
13,100 nM,"CC(=O)N1c2ccc(C(=O)N[C@@H]3CCOC3)cc2[C@H](Nc2cccc(C)n2)[C@@H](C)[C@@H]1C1CC1 [Example 261, (2S,3R,4R)-1-acetyl-2-cyclopropyl-3-methyl-4-((6-methylpyridin-2-yl)amino)-N—((R)-tetrahydrofuran-3-yl)-1,2,3,4-tetrahydroquinoline-6-carboxamide]"

# Further lines, the compound ahead of its results:
row,Compound,IC50
1,"CC(=O)N1c2ccc(C3=CCOCC3)cc2[C@H](Nc2ccc(C#N)cn2)[C@@H](C)[C@@H]1C1CC1 (racemic) [Example 181, rac-6-(((2S,3R,4R)-1-acetyl-2-cyclopropyyl-6-(3,6-dihydro-2H-pyran-4-yl)-3-methyl-1,2,3,4-tetrahydroquinolin-4-yl)amino)nicotinonitrile]",100 nM
2,"CC(=O)N1c2ccc(C#N)cc2[C@H](Nc2cccc(CN(C)C)n2)[C@@H](C)[C@@H]1C1CC1 [Example 298, (2S,3R,4R)-1-acetyl-2-cyclopropyl-4-((6-((dimethylamino)methyl)pyridin-2-yl)amino)-3-methyl-1,2,3,4-tetrahydroquinoline-6-carbonitrile]",1000 to 100000 nM
3,"CC[C@H]1[C@H](C)[C@@H](Nc2cccc(C)n2)c2cc(C(=O)NC(C)C)ccc2N1C(C)=O (racemic) [Example 285, rac-(2S,3R,4R)-1-acetyl-2-ethyl-N-isopropyl-3-methyl-4-((6-methylpyridin-2-yl)amino)-1,2,3,4-tetrahydroquinoline-6-carboxamide]",100 nM
4,"CC(=O)N1c2ccc(F)cc2[C@H](Nc2ccc(C#N)cc2)[C@@H](C)[C@@H]1C (racemic) [Example 139, rac-4-(((2S,3R,4R)-1-acetyl-6-fluoro-2,3-dimethyl-1,2,3,4-tetrahydroquinolin-4-yl)amino)benzonitrile]",100 nM
5,"CC(=O)N1c2ccccc2[C@H](Nc2ccc(C)cc2)[C@@H](C)[C@@H]1C (racemic) [Example 20, rac-1-((2S,3R,4R)-2,3-dimethyl-4-(p-tolylamino)-3,4-dihydroquinolin-1(2H)-yl)ethanone]",100 nM
6,"CC(=O)N1c2ccc(C(=O)NCCO)cc2[C@H](Nc2ccc(C#N)cc2)[C@@H](C)[C@@H]1C1CC1 [Example 492, (2S,3R,4R)-1-acetyl-4-((4-cyanophenyl)amino)-2-cyclopropyl-N-(2-hydroxyethyl)-3-methyl-1,2,3,4-tetrahydroquinoline-6-carboxamide]",100 nM
7,"CC(=O)N1c2ccc(N3CCOCC3)cc2[C@H](Nc2ccccc2)[C@@H](C)[C@@H]1C1CC1 [Example 91a, 1-((2S,3R,4R)-2-cyclopropyyl-3-methyl-6-morpholino-4-(phenylamino)-3,4-dihydroquinolin-1(2H)-yl)ethanone]",100 nM
8,"CC[C@@H]1[C@@H](C)[C@H](Nc2cccc(C)n2)c2cc(C(=O)NC)ccc2N1C(C)=O (racemic) [Example 235, rac-(2S,3R,4R)-1-acetyl-2-ethyl-N,3-dimethyl-4-((6-methylpyridin-2-yl)amino)-1,2,3,4-tetrahydroquinoline-6-carboxamide]",100 nM
9,"CC(=O)OC[C@@H]1[C@@H](Nc2ccccc2)c2ccccc2N(C(C)=O)[C@H]1C1CC1 (racemic) [Example 591, rac-((2S,3R,4R)-1-acetyl-2-cyclopropyl-4-(phenylamino)-1,2,3,4-tetrahydroquinolin-3-yl)methyl acetate]",1000 to 100000 nM
10,"CC(=O)N1c2ccc(C(=O)NC3CCOCC3)cc2[C@H](Nc2ccc(F)cn2)[C@@H](C)[C@@H]1C1CC1 [Example 469, (2S,3R,4R)-1-acetyl-2-cyclopropyl-4-((5-fluoropyridin-2-yl)amino)-3-methyl-N-(tetrahydro-2H-pyran-4-yl)-1,2,3,4-tetrahydroquinoline-6-carboxamide]",100 nM
11,"CC(=O)N1c2ccc(C#N)cc2[C@H](Nc2cccc(OCCN)n2)[C@@H](C)[C@@H]1C1CC1 [Example 318, (2S,3R,4R)-1-acetyl-4-((6-(2-aminoethoxy)pyridin-2-yl)amino)-2-cyclopropyl-3-methyl-1,2,3,4-tetrahydroquinoline-6-carbonitrile]",100 nM
12,"CC(=O)N1c2ccc(N3CCOCC3)cc2[C@@H](Nc2ccccc2)[C@H](C)[C@H]1C (single isomer, unassigned) [Example 71b]",100 nM
13,"CC(=O)N1c2ccc(O)nc2[C@H](Nc2cccc(C)n2)[C@@H](C)[C@@H]1C1CC1 (racemic) [Example 112, rac-1-((2S,3R,4R)-2-cyclopropyl-6-hydroxy-3-methyl-4-((6-methylpyridin-2-yl)amino)-3,4-dihydro-1,5-naphthyridin-1(2H)-yl)ethanone]",1000 to 100000 nM
14,"COc1ncccc1N[C@H]1c2cc(F)ccc2N(C(C)=O)[C@@H](C)[C@@H]1C [Example 509, 1-((2S,3R,4R)-6-fluoro-4-((2-methoxypyridin-3-yl)amino)-2,3-dimethyl-3,4-dihydroquinolin-1(2H)-yl)ethanone]",100 nM
15,"CC(=O)N1c2ccc(N3CCOCC3)cc2[C@H](Nc2ccccc2)[C@@H](C)[C@@H]1C (racemic) [Example 70, rac-1-((2S,3R,4R)-2,3-dimethyl-6-morpholino-4-(phenylamino)-3,4-dihydroquinolin-1(2H)-yl)ethanone]",100 nM
16,"CC[C@@H]1[C@@H](C)[C@H](Nc2cccc(C)n2)c2ccccc2N1C(C)=O (single isomer, unassigned) [Example 25b]",1000 to 100000 nM
17,"COc1ccc2c(n1)[C@H](Nc1cccc(C)n1)[C@@H](C)[C@H](C1CC1)N2C(C)=O (racemic) [Example 111, rac-1-((2S,3R,4R)-2-cyclopropyl-6-methoxy-3-methyl-4-((6-methylpyridin-2-yl)amino)-3,4-dihydro-1,5-naphthyridin-1(2H)-yl)ethanone]",1000 to 100000 nM
18,"CC(=O)N1c2cc(O)ccc2[C@H](Nc2cccc(C)n2)[C@@H](C)[C@@H]1C1CC1 (racemic) [Example 65, rac-1-((2S,3R,4R)-2-cyclopropyl-7-hydroxy-3-methyl-4-((6-methylpyridin-2-yl)amino)-3,4-dihydroquinolin-1(2H)-yl)ethanone]",1000 to 100000 nM
